Measurements published in patent US20200215537A1, “ULTRASENSITIVE CANTILEVER” (3P SENSE LIMITED, priority 2017, published 2020).
Read-outs that look alike come from different tables or passages of the source. Each block holds one compound with its values, some of them ahead of it.

Experiments:
L-VSR = experiment: Cantilever binding assay against L-VSR coated cantilevers; details: for biomechanical force / signal response: 50 μM ligand, sodium phosphate buffer pH 7.4, L-VSR coated cantilevers; for signal response over concentration range: all concentrations of ligand
Protocol: (§1) In the case of preparation of unpassivated cantilever, SAMs of D-VSR, L-VSR and inert PEG molecules were diluted to a concentration of 1 μM in pure ethanol. The diluted SAMs were individually injected into glass capillary tubes (King Precision Glass, Claremont, Calif., USA) which were arranged on the functionalization stage. The cantilevers were then functionalized by incubating them with individual SAMS inside the glass capillaries for 20 min. Care was taken to ensure that the hinge region was entirely covered with the SAM solution in order to ensure mechanical connectivity between the transduction arrays and hinge region.
(§2) Finally, learning from enantiomeric molecules, although identical in structure and are mirror images of one another with different physical characteristics, could be used to test the impact of the regulatory connectivity networks on the biomechanical forces involved in molecular interactions. So it was inferred that in chiral species the level of complementarity between a drug and its target will lead to different assemblies across the mirror images of the surface receptors and this can be reflected in the distinguishable biomechanical forces. To test this concept the interaction of the D-VSR and its corresponding mirror image (L-VSR) (see, Cantilever functionalization with surface target molecules) with the antibiotic drug vancomycin was studied. D-VSR is an enantiomer predominantly found in bacterial cell walls whereas L-VSR is not produced by bacteria. […] The mechanical response obtained using a high concentration of Van (50 μM) against 100 μm wide parallel transduction arrays of D-VSR and L-VSR was initially tested. […] In contrast the signal response of Van against L-VSR was very small ˜−200 pN, approximately 20 times smaller than with D-VSR (FIG. 5a). The experiment was repeated using a wide range of different concentrations of Van (0.1-1000 μM) on at least four separate chips.
(§3) Functionalized cantilever chips were mounted in a sealed liquid cell environment and a time-multiplexed optical laser readout system (Scentris, Veeco Instruments Inc., Santa Barbara, Calif., USA) was used to measure the cantilever bending. The laser alignment was considered successful if the difference between the minimum and maximum deflection was <5% when the cell temperature was raised by 1° C. for 10 min followed by 10 min cooling to room temperature. […]
(§4) The biomechanical force data from ligand-receptor interactions were measured as follows: sodium phosphate buffer (pH 7.4, 0.1 M) was injected into the cell for either 3 or 10 min to establish a baseline. […] Cantilever bending signals were measured in a fixed temperature-controlled hood at 25° C. using a liquid flow rate of 30-180 μL min^−1. […]

[1] = solution; cited from earlier work
[2] = test system: vancomycin susceptible receptor (VSR); experiment: Cantilever binding assay, vancomycin against VSR coated cantilevers
Protocol: as §1
The finding that a signal response is detectable even when the assembling of array networks is confined to only 30 μm of the geometrical width of the region covered while the corresponding geometeric length is fixed at 500 μm of the cantilever, prompted us to examine whether changing the dimensions of the cantilever itself whilst maintaining the mechanical connectivity of surface receptors has any impact on the signal sensitivity and reproducibility. This is because the dimensions of a sensing element can greatly impact on the signal response in several ways (1) the threshold size of the ligand capture cross-section area that is able to generate mechanical signaling decreases when the size of the sensing element is reduced, (2) the biomechanical force impacting on the sensing element is more pronounced for a narrow sensing element, and (3) the narrower the sensing element, the less rigid it is and the more responsive it will be to molecular forces. Further, continuous mechanical connectivity can be effected by the edging effects at the perimeter of the sensor itself and its impact would be more pronounced for narrower sensing elements (FIG. 1b). The effect on signal response by reducing the conventional cantilever width from 100 μm to 70 μm whilst keeping the length and thickness at 500 μm and 1 μm, respectively, was examined. These dimensions were chosen because they enable the narrowed cantilever to be used with standard instruments without the need for redesigning equipment. In addition, at this width the cantilever is less affected by the capillary forces and static charges which may render careful alignment of the scanning laser at the free-end more difficult. For this experiment vancomycin (Van) as the reporter molecule and vancomycin-susceptible receptor (or VSR)^21 as its target were used. Van is the Food and Drug Administration (FDA)-approved drug of last resort for clinical treatment of MRSA and clostridium difficile infections^38,39. This particular system was chosen because it gives relatively large signals and it has been previously shown that the quantitative Van-VSR binding constants can be measured^21 and so it can be used to redefine the limit of recognition of biologically relevant systems. The entire surface of the cantilever including the hinge region was coated with VSR using glass capillares (See Cantilever functionalization with surface target molecules). Artefacts that produce non-specific signals were overcome by performing differential measurements where the reference mercaptoundecyl tri(ethylene glycol) thiol (PEG)-coated cantilever signals was subtracted from the VSR signals. […] The signal response obtained from all three cantilevers was highly consistent and almost identical over a 60 min time period. Moreover, the compressive signal response was relatively high averaging −400±30 pN with a signal-to-noise ratio (SNR) of 7. […] Next, the impact of different concentrations on signal response initially fixed at 20, 50, 500 and 1000 nM (FIG. 4b-d) was examined. […] The thermodynamic pseudo-equilibrium signal response was attained at 60 and 50 min for 20 nM and 50 nM Van, respectively. In contrast, the thermodynamic pseudo-equilibrium was achieved within 6 min or less for Van concentrations ≥500 nM. […]

D-VSR = experiment: Cantilever binding assay against D-VSR coated cantilevers
Protocol: as §1, §2, §3, §4

[3] = SPR; cited from earlier work

Compound: CN[C@H](CC(C)C)C(=O)N[C@H]1C(=O)N[C@@H](CC(N)=O)C(=O)N[C@H]2C(=O)N[C@H]3C(=O)N[C@H](C(=O)N[C@H](C(=O)O)c4cc(O)cc(O)c4-c4cc3ccc4O)[C@H](O)c3ccc(c(Cl)c3)Oc3cc2cc(c3O[C@@H]2O[C@H](CO)[C@@H](O)[C@H](O)[C@H]2O[C@H]2C[C@](C)(N)[C@H](O)[C@H](C)O2)Oc2ccc(cc2Cl)[C@H]1O [Van, vancomycin]
biomechanical force / signal response (L-VSR): ~−200 pN
signal response over concentration range (L-VSR): only a small signal response
Kd [1]: 700 nM
signal response ([2]; 500 pM Van, 100 μm wide cantilevers): no signal response
mechanical force / signal response ([2]; 500 pM Van, pH 7.4, small sized (70 μm wide) cantilever, three separate cantilevers): −400±30 pN
Van concentration at which signal response reached a plateau ([2]; 0.0005 μM to 250 μM Van, narrow cantilevers): 10 µM
time to thermodynamic pseudo-equilibrium signal response ([2]; 20 nM Van): 60 min
biomechanical force response ([2]; 20 nM Van, small sized cantilever): ~−500 pN
time to thermodynamic pseudo-equilibrium signal response ([2]; 50 nM Van): 50 min
biomechanical force response ([2]; 50 nM Van, small sized cantilever): ~−1500 pN
biomechanical force response ([2]; 500 nM Van, small sized cantilever): ~−3000 pN
mechanical force response ([2]; 1 μM Van, 3 separate small sized cantilevers): ~−5000±400 pN
signal response ([2]; 1 μM Van, conventional 100 μm wide cantilevers): −120 nm
Kd ([2]; 100 μm and 70 μm cantilevers, read-out: Kd (surface thermodynamic equilibrium dissociation constant, equation (1))): 500 ± 100 nM
time to thermodynamic pseudo-equilibrium ([2]; Van concentrations ≥500 nM): ≤ 6 min
reversibility of signal response ([2]; all concentrations of Van): reversible
mechanical forces arising from [Van] against VSR (plot) ([2]; large sized cantilever): ~−3800 pN
mechanical forces arising from [Van] against VSR (plot) ([2]; small sized cantilever): ~−6900 pN
ratio of signal response D-VSR versus L-VSR (D-VSR; 50 μM ligand): approximately 20 times
ligand concentration at which plateau was reached (D-VSR; 0.1-1000 μM Van): 50 µM
Kd [3]: 1000 ± 300 nM

biomechanical force / signal response (L-VSR): ~−2000 pN
signal response over concentration range (L-VSR): remained small compared to D-VSR
ratio of signal response D-VSR versus L-VSR (D-VSR; 50 μM ligand): approximately 3 times
biomechanical force / mechanical response (D-VSR; 50 μM ligand, sodium phosphate buffer pH 7.4, D-VSR coated 100 μm wide cantilevers): ~−5000 pN
Compound: ristocetin
